# Tests used:
# [1] = tested on: Escherichia coli (ATCC 25922); assay: Antimicrobial assay, broth microdilution, E. coli; format: cell-based; parameters: key to MIC E. coli: -: no activity; conditions: MIC = 80% growth inhibition, tested 400 to 0.39 µg/mL; for MIC: Escherichia coli, ATCC25922, 12 h at 37 °C; for MIC E. coli: 12 h at 37 °C
# Description: (§1) Meanwhile, the antimicrobial assays of compounds 1–9 were screened against Staphylococcus aureus (ATCC 25923), Escherichia coli (ATCC 25922) and Candida albicans (ATCC 10231).
# (§2) The antimicrobial assays against S. aureus, E. coli and C. albicans were carried out by the broth microdilution method. The tested organisms were incubated overnight with shaking (200 rpm) in thermostatic oscillation incubator (37 °C) in Mueller Hinton broth (MHB) and liquid Sabourand medium for the bacteria and the fungus, respectively. The microbial inoculum density was adjusted to 1 × 10^6 cfu/mL with 0.9% saline solution by comparison with a MacFarland standard. The tested substances and positive drugs were dissolved in methanol to an initial concentration of 40 mg/mL. 4 μL of initial compound solution and 196 μL of MHB (liquid Sabourand medium for fungus) were added into the first well and mixed evenly. Then 100 μL of solution from the first hole, along with 2 μL of methanol and 98 μL of MHB (liquid Sabourand medium for fungus), were transferred to the second hole, and then shaken up as mixture uniform. The repetitive operation was performed to the eleventh one, from which 100 μL of solution well was discarded. Then, 100 μL of microbial suspension was added to the solutions in 96-well to achieve a final volume of 200 µL and final sample concentrations from 400 to 0.39 µg/mL. The blank well was also incubated with only medium under the same conditions. All experiments were carried out in triplicate and with chloramphenicol and ketoconazole as the positive controls. Optical density measurement for bacteria and fungus was recorded at 620 nm after incubation at 37 °C for 12 and 24 h, respectively. The minimal inhibitory concentration (MIC) was defined as the concentration at which the growth was inhibited 80% of the tested microorganisms.
# [2] = tested on: Staphylococcus aureus (ATCC 25923); assay: Antimicrobial assay, broth microdilution, S. aureus; format: cell-based; parameters: key to MIC S. aureus: -: no activity; conditions: MIC = 80% growth inhibition, tested 400 to 0.39 µg/mL; for MIC: Staphylococcus aureus, ATCC25923, 12 h at 37 °C
# Description: as §1, §2
# [3] = tested on: Candida albicans (ATCC 10231); assay: Antimicrobial assay, broth microdilution, C. albicans; format: cell-based; parameters: key to MIC C. albicans: -: no activity; conditions: MIC = 80% growth inhibition, tested 400 to 0.39 µg/mL; for MIC C. albicans: 24 h at 37 °C; for MIC: Candida albicans, ATCC10231, 24 h at 37 °C
# Description: as §1, §2
# [4] = in vitro; conditions: human
# Description: (§3) The cytotoxic activity against HL60, A549 and HL-7702 cell lines was performed by the MTT method as previously described.
# [5] = tested on: human promyelocytic leukemia (HL60) cell line; assay: cells; conditions: HL-60, read-out: IC50 cytotoxicity against HL60
# Description: as §3
# [6] = tested on: human lung adenocarcinoma (A549) cell line; assay: Cytotoxicity by the MTT method, A549; conditions: A549, read-out: IC50 cytotoxicity against A549
# Description: as §3
MIC [1] [µg/mL],MIC [2] [µg/mL],MIC C. albicans [3],MIC E. coli [1],SMILES,also measured
> 400,> 400,-,,"COC1=CC(=O)OC12Oc1cc(O)cc(C)c1CC2C (racemic) [Compound 4, (±)-Aspersclerolide D]",
,,-,-,"COC1=CC(=O)C(C)C1O (racemic) [Compound 5, (±)-4-hydroxy-3-methoxy-5-methyl-2-cyclopentenone]",MIC S. aureus ([2]; 12 h at 37 °C): -
> 400,> 400,-,,"CC(=O)C1(O)OC(=O)C=C1C (stereo not drawn) [Compound 1, Aspersclerolide A]",IC50 [4]: 17.6 µM; IC50 [5]: 6.5 µM; IC50 [6]: 8.9 µM
200,200,-,,"COC(CO)C1(O)OC(=O)C=C1C (stereo not drawn) [Compound 2, Aspersclerolide B]",
200,200,-,,"COC1=CC(=O)OC1(O)C(C)Cc1c(C)cc(O)cc1O (stereo not drawn) [Compound 3, Aspersclerolide C]",IC50 [4]: 22.8 µM; IC50 [5]: 12.1 µM; IC50 [6]: 16.7 µM
,> 400,-,-,"COC1=CC(=O)OC1(O)C(C)CO (stereo not drawn) [Compound 6, 6-hydroxyl dihydropenicillic acid]",
,> 400,-,-,"C=C(OC)C1(O)OC(=O)C=C1C (stereo not drawn) [Compound 7, spersclerotioron G]",
12.5,6.25,,,"C=C(C)C1(O)OC(=O)C=C1OC (stereo not drawn) [Compound 8, penicillic acid]",MIC [3]: 50 µg/mL
,> 400,-,-,"COC1=CC(=O)OC1(O)C(C)C (stereo not drawn) [Compound 9, dihydropenicillic acid]",
6.25,3.12,,,"O=C(N[C@H](CO)[C@H](O)c1ccc([N+](=O)[O-])cc1)C(Cl)Cl [chloramphenicol, reference compound]",
,,,,"COc1cccc2c1C(=O)c1c(O)c3c(c(O)c1C2=O)C[C@@](O)(C(=O)CO)C[C@@H]3O[C@H]1C[C@H](N)[C@H](O)[C@H](C)O1 [doxorubicin, reference compound]","IC50 ([4]; HL-7702 cells (human normal liver, non-cancer)): 8.3 µM; IC50 [5]: 0.85 µM; IC50 [6]: 1.5 µM"
,,,,"CC(=O)N1CCN(c2ccc(OCC3COC(Cn4ccnc4)(c4ccc(Cl)cc4Cl)O3)cc2)CC1 (stereo not drawn) [ketoconazole, reference compound]",MIC [3]: 6.25 µg/mL

# Reference: PMC6680918, “New Butenolides and Cyclopentenones from Saline Soil-Derived Fungus Aspergillus Sclerotiorum” (Molecules, 2019)
